A value given as a limit tells only on which side of the number the result lay.

This is an account of results in patent publication US20230183239A1, “ECTONUCLEOTIDE PYROPHOSPHATASE-PHOSPHODIESTERASE 1 (ENPP-1) INHIBITORS AND USES THEREOF” (AbbVie Inc., priority 2017, published 2023).

Common to all, as to assay type: biochemical
Test [1] has as its target T1, ENPP1 (Homo sapiens, UniProt P22413).
T1 sequence (P22413 1-925): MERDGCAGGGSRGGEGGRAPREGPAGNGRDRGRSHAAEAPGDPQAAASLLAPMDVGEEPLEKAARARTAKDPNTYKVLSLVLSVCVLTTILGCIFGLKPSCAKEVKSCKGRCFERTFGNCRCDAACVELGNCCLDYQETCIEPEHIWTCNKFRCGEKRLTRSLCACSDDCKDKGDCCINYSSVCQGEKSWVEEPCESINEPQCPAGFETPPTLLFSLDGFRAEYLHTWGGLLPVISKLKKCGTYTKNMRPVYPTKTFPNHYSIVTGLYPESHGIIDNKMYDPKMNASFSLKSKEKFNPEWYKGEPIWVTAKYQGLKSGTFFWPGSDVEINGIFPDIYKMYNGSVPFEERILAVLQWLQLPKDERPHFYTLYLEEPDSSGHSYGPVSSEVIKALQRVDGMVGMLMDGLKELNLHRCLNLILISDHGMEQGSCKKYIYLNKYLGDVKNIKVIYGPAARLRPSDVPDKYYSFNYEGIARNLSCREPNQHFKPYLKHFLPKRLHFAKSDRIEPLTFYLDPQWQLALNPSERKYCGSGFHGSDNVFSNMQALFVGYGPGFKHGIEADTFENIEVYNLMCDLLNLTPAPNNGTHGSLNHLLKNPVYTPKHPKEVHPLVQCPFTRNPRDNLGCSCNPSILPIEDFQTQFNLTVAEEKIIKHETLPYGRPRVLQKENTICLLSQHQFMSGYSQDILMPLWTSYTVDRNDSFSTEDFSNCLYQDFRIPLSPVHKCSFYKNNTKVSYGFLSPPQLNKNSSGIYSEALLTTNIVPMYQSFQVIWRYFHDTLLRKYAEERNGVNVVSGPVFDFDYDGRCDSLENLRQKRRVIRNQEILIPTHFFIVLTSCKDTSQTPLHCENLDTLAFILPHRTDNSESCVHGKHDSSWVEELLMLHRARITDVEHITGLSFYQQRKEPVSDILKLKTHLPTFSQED
Kind of test: Substrate selectivity ratio, inhibition of cGAMP hydrolysis versus ATP hydrolysis. The following applies: ratio Ki AMP-pNP / Ki cGAMP. As to the method:
The selectivity ratios for inhibition of cGAMP hydrolysis versus ATP hydrolysis were then calculated as follows: […]

Test [2] has as its target T1, ENPP1. The test is described as follows: ENPP1 enzyme assay with AMP-pNP substrate (hydrolysis of ATP analog). The following applies: AMP-pNP substrate (ATP analog); Ki from IC50 by Cheng-Prusoff; read-out: ENPP1 Inhibition _AMP-pNP: Ki. A digest of the protocol:
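Human recombinant ENPP1 (60 ng/well) with 300 µM AMP-pNP in 50 mM Tris-HCl pH 8.5, 250 mM NaCl, 0.5 mM CaCl2, 1 µM ZnCl2, 0.1% DMSO, 20 min at 37 °C.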

Test [3] deals with T1, ENPP1. The test is described as follows: Indirect quantitation of 2',3'-cGAMP hydrolysis (AMP-Glo Assay kit). The following applies: cGAMP substrate; Ki from IC50 by Cheng-Prusoff; read-out: ENPP1 Inhibition -cGAMP: Ki.

The term Ki denotes the dissociation constant of the complex between target and ligand, obtained from inhibition or displacement. With `COc1cc2c(-c3ccc(CNS(N)(=O)=O)cc3)c(C#N)cnc2cn1` [Example 235, N-(4-(3-cyano-6-methoxy-1,7-naphthyridin-4-yl)benzyl)sulfamide], the “Substrate Selectivity: Ki_AMP-pNP/Ki_cGAMP” value (from here on “Substrate Selectivity”) at ENPP1 [1] is >97.7. Moreover, the Ki on ENPP1 [2] is > 1000 nM; on ENPP1 [3] it was 100 to 1000 nM.
On the same counts, the results for `COc1cc2ncc(C#N)c(N3CCC4(CC3)CCN(S(N)(=O)=O)C4)c2cc1OC` [Example 64, 8-(3-cyano-6,7-dimethoxyquinolin-4-yl)-2,8-diazaspiro [4.5] decane-2-sulfonamide] are 11.9, < 100 nM and < 100 nM.
On to `NS(=O)(=O)NCCC1CCN(c2ncnc3c2CCNC3)CC1` [Example 232, N-(2-(1-(5,6,7,8-tetrahydropyrido[3,4-d]pyrimidin-4-yl)piperidin-4-yl)ethyl)sulfamide], for which the “Substrate Selectivity” value at ENPP1 [1] was > 7.1. The values for the inhibitory constant (Ki) at ENPP1 [2] and at ENPP1 [3] were > 1000 nM and 100 to 1000 nM, respectively.
Regarding `COc1cc2ncnc(NC(C)c3ccc(NS(N)(=O)=O)cc3)c2cc1OC` (stereo in doubt) [Example 253, (R)-N-(4-(1-((6,7-dimethoxyquinazolin-4-yl)amino)ethyl)phenyl)sulfamide], the “Substrate Selectivity” value on ENPP1 [1] worked out at 79.4. Besides, the Ki at ENPP1 [2] was 100 to 1000 nM; on ENPP1 [3] it was < 100 nM.
On the same counts, the results for `COc1ccc2ncc(C#N)c(-c3ccc(CN(C4CC4)S(N)(=O)=O)cc3)c2c1` [Example 294, N-(4-(3-cyano-6-methoxyquinolin-4-yl)benzyl)-N-cyclopropylsulfamide] are >119, > 1000 nM and 100 to 1000 nM.
Taken in the same sequence, the figures for `COc1ccc2c(Oc3ccc(S(N)(=O)=O)cc3)c(C(F)(F)F)cnc2c1` [Example 377, 4-((7-methoxy-3-(trifluoromethyl)quinolin-4-yl)oxy) benzenesulfonamide] were >89, > 1000 nM and 100 to 1000 nM.
Taken in the same sequence, the figures for `COc1cc2ncnc(N3CCC(CCC(N)=O)CC3)c2cc1OC` [Example 222, 3-(1-(6,7-dimethoxyquinazolin-4-yl)piperidin-4-yl)propanamide] were > 14.6, > 1000 nM and 100 to 1000 nM.
For the molecule `COc1ccc2ncc(C#N)c(-c3ccc4c(c3)CN(S(N)(=O)=O)CC4)c2c1` [Example 237, 7-(3-cyano-6-methoxyquinolin-4-yl)-3,4-dihydroisoquinoline-2(1H)-sulfonamide], the “Substrate Selectivity” value at ENPP1 [1] is recorded as >371. In addition, the Ki was > 1000 nM on ENPP1 [2] and < 100 nM on ENPP1 [3].
On the same counts, the results for `COc1ccc2c(-c3ccc(CNS(N)(=O)=O)cc3)ccnc2n1` [Example 63, N-(4-(7-methoxy-1,8-naphthyridin-4-yl)benzyl)sulfamide] are 28.0, < 100 nM and < 100 nM.
Taken in the same sequence, the figures for `COc1ccc2c(Sc3ccc(NS(N)(=O)=O)cc3)ccnc2c1` [Example 302, N-(4-((7-methoxyquinolin-4-yl)thio)phenyl)sulfamide] were >13.0, 100 to 1000 nM and < 100 nM.
In the case of `COc1ccc2c(Oc3ccc(NS(N)(=O)=O)c(Cl)c3)ccnc2c1` [Example 75, N-(2-chloro-4-((7-methoxyquinolin-4-yl)oxy)phenyl)sulfamide], the “Substrate Selectivity” value at ENPP1 [1] is 41.3. The Ki was 100 to 1000 nM on ENPP1 [2] and < 100 nM on ENPP1 [3].
Taken in the same sequence, the figures for `COc1ccc2c(N3CCC4(CC3)CCN(S(N)(=O)=O)C4)ccnc2c1` [Example 363, 8-(7-methoxyquinolin-4-yl)-2,8-diazaspiro[4.5]decane-2-sulfonamide] were 49, 100 to 1000 nM and < 100 nM.
Turning to `COc1ccc2c(-c3ccc(CNS(N)(=O)=O)c(C)c3)ccnc2c1` [Example 374, N-(4-(7-methoxyquinolin-4-yl)-2-methylbenzyl) sulfamide], the “Substrate Selectivity” value on ENPP1 [1] is reported as >138. The Ki on ENPP1 [2] is > 1000 nM; at ENPP1 [3], < 100 nM.
For the molecule `COc1cc2nccc(N3CCC(CCNS(N)(=O)=O)CC3)c2cn1` [Example 204, N-(2-(1-(7-methoxy-1,6-naphthyridin-4-yl)piperidin-4-yl)ethyl)sulfamide], the “Substrate Selectivity” value on ENPP1 [1] is recorded as > 39.4. Further, the results for the Ki on ENPP1 [2] and at ENPP1 [3] were > 1000 nM and 100 to 1000 nM, respectively.
On the same counts, the results for `COc1ccc2c(Oc3ccc(NS(N)(=O)=O)cc3)c(C(F)(F)F)cnc2c1` [Example 407, N-(4-((7-methoxy-3-(trifluoromethyl)quinolin-4-yl)oxy)phenyl)sulfamide] are >14, > 1000 nM and 100 to 1000 nM.
On the same counts, the results for `COc1ccc2c(-c3ccc4c(c3)CN(S(N)(=O)=O)CC4)ccnc2n1` [Example 365, 7-(7-methoxy-1,8-naphthyridin-4-yl)-3,4-dihydroisoquinoline-2(1H)-sulfonamide] are 18, 100 to 1000 nM and < 100 nM.
Taken in the same sequence, the figures for `COc1cc(F)c2c(N3CCc4cc(NS(N)(=O)=O)ccc43)ccnc2c1` [Example 412, N-(1-(5-fluoro-7-methoxyquinolin-4-yl)indolin-5-yl)sulfamide] were >271, > 1000 nM and 100 to 1000 nM.
On to `NS(=O)(=O)N1CCC2(CCN(c3ncnc4cc(F)ccc34)CC2)C1` [Example 250, 8-(7-fluoroquinazolin-4-yl)-2,8-diazaspiro [4.5] decane-2-sulfonamide], for which, at ENPP1 [1], the “Substrate Selectivity” value is given as > 89.3. Also, the figures for the Ki on ENPP1 [2] and on ENPP1 [3] were > 1000 nM and < 100 nM, respectively.
Taken in the same sequence, the figures for `COc1cc2ncc(C3CC3)c(-c3ccc4c(c3)CN(S(N)(=O)=O)CC4)c2cc1OC` [Example 283, 7-(3-cyclopropyl-6,7-dimethoxyquinolin-4-yl)-3,4-dihydroisoquinoline-2(1H)-sulfonamide] were 5.4, < 100 nM and < 100 nM.
On the same counts, the results for `COc1cc2ncnc(Nc3ccc(NS(N)(=O)=O)cc3)c2cc1OC` [Example 114, N-(4-((6,7-dimethoxyquinazolin-4-yl)amino)phenyl)sulfamide] are >42.7, > 1000 nM and < 100 nM.
In the case of `COc1cc2ncnc(N3CCC(CCN)CC3)c2cc1OC` [Example 334, 2-(1-(6,7-dimethoxyquinazolin-4-yl)piperidin-4-yl)ethan-1-amine], the “Substrate Selectivity” value on ENPP1 [1] is listed as >414. The Ki on ENPP1 [2] was > 1000 nM; on ENPP1 [3] it was < 100 nM.
Turning to `COc1ccc2c(-c3ccc(CN(C)S(N)(=O)=O)cc3)ccnc2c1` [Example 368, N-(4-(7-methoxyquinolin-4-yl)benzyl)-N-methyl sulfamide], on ENPP1 [1], the “Substrate Selectivity” value is listed as >7. For the same molecule, the Ki is 100 to 1000 nM at ENPP1 [2] and < 100 nM at ENPP1 [3].
